{"source": "paper PMC12948223", "about": "“HSP70 Interactome‐Mediated Proteolysis Targeting Chimera (HSP70‐PROTAC) for Ferroptosis‐Driven Cancer Treatment” (Advanced Science, 2025)", "key": {"HT1080 cells [1]": {"test_system": "HT1080 cells", "test": "Cell viability CCK-8 assay", "assay_type": "cell-based, human", "conditions": "CCK-8, 48 h, read-out: IC50 (cytotoxicity)", "experimental": "To determine whether GPX4 degradation following treatment with HSP70‐PROTACs triggers cancer cell ferroptosis, we initially assessed the viability of HT1080 cells using the CCK‐8 assay after treatment with various concentrations of the tested compounds for 48 h. GPX4 inhibitor ML162, HSP70 inhibitor apoptozole, and two GPX4 non‐degradable HSP70‐PROTAC molecules, GDAz‐Neg1 and GDAz‐Neg2, were selected as controls. […] This remarkable activity might partly be ascribed to the high cell permeability conferred by the piperazine ring. […] We speculated that the potent anti‐proliferative activity of GDAz‐Neg2 may be attributed to the GPX4 inhibition.\nThe compounds under investigation were initially dissolved in dimethyl sulfoxide (DMSO) to generate stock solutions with a concentration of 10 mM. HT1080 cells or other tested cells were seeded in 96‐well plates at a density of 3000–5000 cells well^−1 and cultured at 37 °C. Following a 24‐h incubation period, the tested compounds were added to the wells at various concentrations (the DMSO stock solutions of all the tested compounds were diluted with culture medium to obtain the designated concentration containing a final concentration of DMSO less than 0.5% (v/v)). The cells were then cultured for an additional 48 or 72 h. Cell Counting Kit 8 (CCK‐8) assay was conducted to examine the effects of the tested compounds on cell viability, and the absorbance was measured at a wavelength of 450 nm. The IC50 values were determined utilizing GraphPad Prism software through nonlinear regression analysis. All experiments were independently repeated at least three times."}, "HT1080 xenograft tumor": {"test_system": "HT1080 xenograft tumor", "test": "HT1080 xenograft tumor mouse model, antitumor efficacy and safety", "assay_type": "in vivo", "conditions": "30 mg/kg IP once daily", "experimental": "Motivated by the aforementioned in vitro findings, we subsequently sought to evaluate the in vivo antitumor efficacy of GDAz‐3 using an HT1080 xenograft tumor mouse model. The tumor‐bearing mice were randomly divided into six groups, minimizing weight and tumor size differences among the groups (n = 6 in each group). The treatment group mice were administered once daily by intraperitoneal injection (IP) with GDAz‐3 at a dosage of 30 or 60 mg kg^−1, while the control group animals were treated with the corresponding solvent, ML162, and apoptozole at a dosage of 30 mg kg^−1. Additionally, we set up a drug combination group to confirm the superiority of GDAz‐3. After treatment for 17 days, animals were humanely euthanized and the tumors were excised (Figure 7B). […] The advantage of the safety of GDAz‐3 was also determined by the hematoxylin and eosin (H&E) staining. […] In general, compared with the single inhibitor or their combination, the in vivo antitumor study confirmed the efficacy and safety of GDAz‐3.\nThe experimental procedures of the animal experiments were permitted by the Hangzhou Institute of Medicine (HIM), Chinese Academy of Sciences (AP2024‐07‐0010). Male BALB/c nude mice (6 weeks old) were housed under pathogen‐free conditions, maintained at a constant room temperature, and fed standard rodent chow and water. An HT1080 fibrosarcoma xenograft model in nude mice was established through subcutaneous transplantation. When the tumors emerged, the mice were randomly divided into six groups with six mice in each group: GDAz‐3‐treated at 30 or 60 mg kg^−1 group and control groups, including the vehicle group, and each of the two inhibitor‐treated groups (ML162 and apoptozole) at 30 mg kg^−1, and their combinations. The mice were intraperitoneally (IP) injected daily according to their body weight. Body weight and tumor size were measured every other day, and the tumor volume and body weight were recorded every other day after drug treatment. After treatment, the animals were euthanized by cervical dislocation, and the tumor bulks were peeled off and weighed. The organ tissues (tumor, heart, liver, spleen, lung, and kidney) were harvested and fixed with 4% paraformaldehyde for hematoxylin‐eosin (H&E) and immunohistochemistry (IHC) staining. In addition, the expression of GPX4 in tumor samples was analyzed in vehicle‐ and GDAz‐3‐treated groups by western blot assay."}, "Hsc70": {"molecular_target": "Hsc70", "design": "method as in PMID 18729127", "conditions": "cited from earlier work"}, "Hsp70": {"molecular_target": "Hsp70", "design": "method as in PMID 18729127", "conditions": "cited from earlier work"}, "GPX4 [2]": {"molecular_target": "T1, GPX4 (Homo sapiens, UniProt P36969)", "T1 sequence (P36969 1-170 isoform P36969-2)": "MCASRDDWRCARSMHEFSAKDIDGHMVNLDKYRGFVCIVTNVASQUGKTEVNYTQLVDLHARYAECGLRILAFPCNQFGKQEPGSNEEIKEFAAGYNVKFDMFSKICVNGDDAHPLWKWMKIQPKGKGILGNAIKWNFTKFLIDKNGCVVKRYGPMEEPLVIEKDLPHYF", "test": "GPX4 degradation by western blot in HT1080 cells", "assay_type": "cell-based", "design": "determine the changes in the endogenous levels of GPX4 by western blot assay; endogenous in cells; host or cells: HT1080 fibrosarcoma cells, including siRNA-knockdown derivatives", "conditions": "HT1080 cells, 0.3 µM, 24 h (Figure 3A)", "experimental": "To evaluate the GPX4 degradation efficiency of the synthesized HSP70‐PROTACs GDAz‐1–14, we first selected ferroptosis‐sensitive HT1080 fibrosarcoma cells (highly‐expressing GPX4) treated with different concentrations (0.1, 0.3, 1, and 3 µM) of these chimeras to determine the changes in the endogenous levels of GPX4 by western blot assay after 24 h treatment. […] This finding underscores the crucial role of the linker in HSP70‐PROTAC‐mediated protein degradation. […] In the case of alkyl chain derivatives (GDAz‐6–10), elongating the length of the linker generally led to a decreased GPX4 degrading activity. […] Thus, GDAz‐3 was selected for further evaluation.\n(§1) Cells were seeded at a density of 4 × 10^5 cells well^−1 in 6‐well plates and allowed to incubate overnight. Cells were incubated with the indicated treatments. Thereafter, the cells were collected and lysed with RIPA buffer containing serine protease and phosphatase inhibitors for 30 min on ice. Proteins were quantified by using a BCA protein assay kit (Beyotime). Subsequently, SDS‐PAGE sample loading buffer was added, and the mixture was heated in a 100 °C metal bath for 10 min to denature the proteins. Protein samples from each group were separated by SDS‐PAGE gel and transferred to a PVDF membrane. After blocking with 5% skim milk for 1 h at room temperature, primary antibodies (GPX4: abcam (#ab125066, 1:1000); Hsp70: abcam (#ab2787, 1:1000); CHIP: HUABIO (#ST7108, 1:1000); UpingBio Technology Co., Ltd. (BRD4, #YP‐Ab‐18034, 1:1000; BAG‐1, #YP‐Ab‐00575, 1:1000); GAPDH: Proteintech (#60004‐1‐Ig, 1:50 000)) were used and incubated at 4 °C overnight on a rotary shaker. After washing the membranes with TBST buffer five times, the membranes were incubated with a second antibody (Cell Signaling Technology, #7074S, 1:1000 and #7076S, 1:1000) at room temperature for 2 h. Ultimately, the membrane was washed five times, and the antibody‐protein complexes were visualized using an ECL luminescence reagent (Biosharp, Shanghai, China). The relative intensities of the bands were analyzed by ImageJ and normalized to a loading control."}, "BRD4": {"molecular_target": "T2, BRD4 (Homo sapiens, UniProt O60885)", "T2 construct": "effectively degrading additional endogenous bromodomain‐containing protein 4 (BRD4) in cancer cells; endogenous in cells; host or cells: MOLT-4", "test": "BRD4 degradation by western blot in MOLT-4 cells", "assay_type": "cell-based", "conditions": "48 h", "description": "To expand beyond the GPX4 degradation, we next sought to investigate the potential of the HSP70 complex to facilitate the degradation of additional proteins. We selected oncoprotein bromodomain containing 4 (BRD4), a degradable protein that not only has been widely used as a model substrate for development of new technologies in the TPD field, but also serves as a validated therapeutic target for multiple cancers. We synthesized three heterobifunctional compounds (GDAz‐15–17) by conjugating the HSP70 binding moiety apoptozole to the well‐established BRD4 inhibitor (+)‐JQ‐1 (a potent, specific, and reversible BRD4 inhibitor extensively applied in TPD) via PEG linkers of varying lengths (Figure 8E; Scheme S6, Supporting Information). T lymphoblast MOLT‐4 cell line with BRD4 overexpression was selected for biological evaluation.\nas §1, with “After washing the membranes with TBST buffer five times, the membranes were incubated with a second antibody (Cell Signaling Technology, #7074S, 1:1000 and #7076S, 1:1000) at room temperature for 2 h.” left out"}, "HT1080 cells [3]": {"test_system": "HT1080 cells", "design": "method as in PMID 39230973", "conditions": "same experimental conditions, cited from earlier work"}, "GPX4 [4]": {"molecular_target": "T1, GPX4", "test": "GPX4 degradation by western blot in 786-O cells", "assay_type": "cell-based", "design": "endogenous in cells; host or cells: 786-O", "conditions": "up to 10 µM, 24 h; sentence reads 'neither ... nor ... induced any degradation effect' = no degradation", "description": "As previously mentioned, drug resistance and limited application scope are the significant challenges of traditional PROTAC, due partly to CRBN/VHL mutations or low expression. In this study, we investigated whether the developed HSP70‐PROTAC could address these challenges. Specifically, we examined the developed HSP70‐PROTAC in scenarios where VHL‐ or CRBN‐based PROTACs are ineffective due to intrinsic or acquired resistance. Several previously reported representative GPX4‐targeting degraders, including dGPX4 (CRBN‐based PROTAC, Figure 1A), 8e (VHL‐based PROTAC, Figure 1B), and GDCNF‐11/2 (HSP90‐based HIM‐PROTAC, Figure 1C, the structure of the GDCNF‐11 derivative GDCNF‐2 was not shown) were selected as control agents.^[ [18], [23], [28] ^] […] The clear cell renal cell carcinoma (ccRCC) 786‐O cell line is a well‐established cancer cell model characterized by an intrinsic deficiency in VHL expression.^[ [43], [44], [45] ^] We also confirmed this characteristic through evaluating the VHL expression levels in several randomly selected cancer cell lines (Figure S10A, Supporting Information). We further selected 786‐O cells as a model to confirm whether HSP70‐PROTAC could be used in such cases as an alternative to VHL‐based degraders, because VHL‐based PROTACs cannot be used to treat kidney cancer with a mutation or deletion in the VHL gene.\nas §1"}, "GPX4 [5]": {"molecular_target": "T1, GPX4", "design": "determine the changes in the endogenous levels of GPX4 by western blot assay; endogenous in cells; host or cells: HT1080 fibrosarcoma cells, including siRNA-knockdown derivatives; method as in PMID 39230973", "conditions": "cited from earlier work"}, "ferroptosis": {"test_system": "ferroptosis", "design": "method as in PMID 34506134, PMID 35648631", "conditions": "cited from earlier work"}}, "note": "Read-outs that look alike come from different tables or passages of the source."}
{"smiles": "COc1ccc(-c2nc(-c3cc(C(F)(F)F)cc(C(F)(F)F)c3)n(Cc3ccc(C(N)=O)cc3)c2-c2ccc(OC)cc2)cc1", "note": "[Apoptozole, reference compound]", "values": [{"measurement": "IC50", "setting": "HT1080 cells [1]", "result": 17, "unit": "µM"}, {"measurement": "Toxic effects during treatment", "setting": "HT1080 xenograft tumor", "result": "serious toxic effects such as death"}, {"measurement": "Kd", "setting": "Hsc70", "result": 0.21, "unit": "µM"}, {"measurement": "Kd", "setting": "Hsp70", "result": 0.14, "unit": "µM"}, {"measurement": "GPX4 degradation", "setting": "GPX4 [2]", "result": "this degradation effect was not observed"}]}
{"smiles": "COc1ccc(-c2nc(-c3cc(C(F)(F)F)cc(C(F)(F)F)c3)n(Cc3ccc(C(=O)NCCOCCOCCOCCOCCNC(=O)C[C@@H]4N=C(c5ccc(Cl)cc5)c5c(sc(C)c5C)-n5c(C)nnc54)cc3)c2-c2ccc(OC)cc2)cc1", "note": "[GDAz-17, (S)-4-((2-(3,5-bis(trifluoromethyl)phenyl)-4,5-bis(4-methoxyphenyl)-1H-imidazol-1-yl)methyl)-N-(1-(4-(4-chlorophenyl)-2,3,9-trimethyl-6H-thieno[3,2-f][1,2,4]triazolo[4,3-a][1,4]diazepin-6-yl)-2-oxo-6,9,12,15-tetraoxa-3-azaheptadecan-17-yl)benzamide]", "values": [{"measurement": "BRD4 degradation", "setting": "BRD4", "result": "effectively trigger BRD4 degradation"}]}
{"smiles": "COc1c(C)cnc(Cn2cnc3c(NCCC4CCN(C(=O)Cn5cc(COc6ccc(N(C(=O)CCl)C(C(=O)NCCc7ccccc7)c7cccs7)cc6Cl)nn5)CC4)nc(N)nc32)c1C", "note": "(centres unmarked) [GDCNF-11]", "values": [{"measurement": "IC50", "setting": "HT1080 cells [3]; read-out: IC50 (antiproliferative activity)", "result": 0.79, "unit": "µM"}, {"measurement": "Ferroptosis selectivity index", "setting": "HT1080 cells [3]", "result": "about 45 fold"}, {"measurement": "GPX4 degradation in 786-O cells", "setting": "GPX4 [4]", "result": "induced any degradation effect"}, {"measurement": "Onset of GPX4 protein degradation", "setting": "GPX4 [5]", "result": "initiating GPX4 protein degradation after 12 h"}]}
{"smiles": "COC(=O)c1ccc([C@@H]2c3[nH]c4ccccc4c3C[C@@H](C(=O)OC)N2C(=O)CCl)cc1", "note": "[RSL3]", "values": [{"measurement": "Ferroptosis selectivity (SI)", "setting": "ferroptosis", "result": 3.1}]}
